Results on 14 compounds are retold here after US5874464A, “Conformationally constrained diacylglycerol analogues” (The United States of America as represented by the …, priority 1995, dated 1999).

Series [1] deals with T1, PK-C α (Homo sapiens, UniProt P17252).
T1 construct: made in house
The series can be described thus: displacement of bound [3H-20]-phorbol-12,13-dibutyrate (PDBU) from single recombinant isozyme PK-C α. In kind it is binding. The following applies: for Ki: PK-C α. Here is the method: This recombinant PK-C α was expressed in baculovirus and isolated as described by Kazanietz et al. (Mol. Pharmacol. 44: 298-307 (1993)).
The affinity of these ligands for PK-C was assessed in terms of their ability to displace bound [^3 H-20]-phorbol-12,13-dibutyrate (PDBU) from a purified product containing the single isozyme PK-C α.

For series [2], the system named is mouse skin tumor promotion. As to conditions: in vivo; cited from earlier work.
Series [3] can be described thus: stability to racemization / acyl migration. Format: physicochemical. The following applies: silica or neutral alumina.
The test system of series [4] is PK-C.eta. The series is described as follows: down-regulation of PK-C.eta. in primary mouse keratinocytes. Format: cell-based. The following applies: after 24 hours.
For series [5], the target named is T2, PK-C α (Mus musculus, UniProt P20444).
T2 construct: in primary mouse keratinocytes; endogenous in cells; host or cells: primary mouse keratinocytes
The series is described as follows: down-regulation of PK-C α in primary mouse keratinocytes. In kind it is cell-based. As to conditions: even after 24 h. As for the experimental part:
(§1) The biological activity of compound 3.8 was evaluated further. […] Finally, the ability of compound 3.8 to down-regulate PK-C α and PK-C δ in primary mouse keratinocytes after 24 hours was examined.

Series [6] addresses T1, PK-C α. The series can be described thus: stimulation of phosphorylation of the α-pseudosubstrate peptide (activation of PK-C α). In kind it is biochemical. As to conditions: read-out: ED50, stimulation of phosphorylation of the α-pseudosubstrate peptide.
The test system of series [7] is PK-Cε. The series can be described thus: down-regulation of PK-Cε in primary mouse keratinocytes. The following applies: after 24 hours. Format: cell-based.
The subject of series [8] is CD-1 mouse skin. The series can be described thus: induction of acute edema or hyperplasia in CD-1 mouse skin. Format: in vivo. As to conditions: 10-100 μg.
The subject of series [9] is binding of epidermal growth factor. The series is described as follows: inhibition of binding of epidermal growth factor in intact cells. Format: cell-based. The following applies: read-out: ED50, inhibition of binding of epidermal growth factor. Here is the method:
as §1

In series [10] the test system is melanoma. As to conditions: in vivo; cited from earlier work.
Where [11] appears, read: Table II, racemic and chiral compounds, read-out: Apparent Ki for ligands as inhibitors of PDBU binding to PK-C.
[12] abbreviates: read-out: Ki, displacement of bound PDBU.
[13] abbreviates: Table I, read-out: Apparent Ki for ligands as inhibitors of PDBU binding to PK-C.
The mark [14] stands for this setting: Table IV, read-out: Apparent Ki for chiral ligands having an α-alkylidene chain as inhibitors of PDBU binding to PK-C.

Structures are written as SMILES. Read-outs that look alike come from different tables or passages of the source.

Regarding `CCCCCCCCCCCCCC(=O)OCC1(CO)CCC(=O)O1` (stereo not shown), the Ki in series [1] (setting [11]) is 138 ± 24 nM. Consider `CCCCCCCCCCCCCC(=O)OCC1(CO)CCC(=O)O1` (racemic) [Compound 3e, 5-[(tetradecanoyloxy)methyl]-5-hydroxymethyl-tetrahydro-2-furanone], for which, in [1] (setting [12]), the Ki was 138 nM. On to `CC(=O)OC12CC(C)C3(O)C(C=C(CO)CC4(O)C(=O)C(C)=CC43)C1C2(C)C` (stereo not shown) [12-deoxyphorbol-13-acetate], for which the “inhibition of mouse skin tumor promotion” value in series [2] is 97%. For `CCCCCCCCCCCCCC(=O)OC[C@]1(CO)CCC(=O)O1` [Compound 2.2, (R)-5-[(tetradecanoyloxy)methyl]-5-(hydroxymethyl)-tetrahydro-2-furanone], the “racemization on exposure to chromatographic conditions” value in [3] is listed as “rapid racemization”. The Ki in series [1] (setting [12]) is 96 nM. As to `CCCCCCCC/C=C\CCCCCCC/C=C1\C[C@](/C=C/C(=O)OC)(CO)OC1=O` [Compound 3.7, (S)-5-Hydroxymethyl-5-[2-(methoxycarbonyl)ethenyl]-3-{(E)-[(Z)-9-octadecenoylidene]}tetrahydro-2-furanone], in [1] (Table IV), the “binding affinity compared with the corresponding α-alkylidenes 3.9 and 3.10” value is on record as “equivalent”.

Regarding `CCCCCCCC/C=C\CCCCCCC/C=C1/C[C@](/C=C/C(=O)OC)(CO)OC1=O` [Compound 3.8, (S)-5-Hydroxymethyl-5-[2-(methoxycarbonyl)ethenyl]-3-{(Z)-[(Z)-9-octadecenoylidene]}tetrahydro-2-furanone], the “down-regulation of PK-C.eta.” value in series [4] was “did not down-regulate”. The loss in activity result in series [5] was “No loss in activity was observed”. Besides, the EC50 in series [6] came to 163 ± 16.7 nM. The “down-regulation of PK-Cε” value in series [7] is “did not down-regulate”. Besides, the “induction of acute edema” value in [8] (6 h) is listed as “did not induce acute edema”. In addition, the induction of hyperplasia entry in [8] (72 h) is recorded as “did not induce acute edema (10-100 μg, 6 h) or hyperplasia”. Besides, in series [1] (Table IV), the “binding affinity compared with the corresponding α-alkylidenes 3.9 and 3.10” value is “equivalent”. In [9], the IC50 was 1000 nM. For the compound `CCCCCCCC/C=C\CCCCCCCC(=O)OCC1(CO)CCC(=O)O1` (stereo not shown) [Compound 3f, 5-{[(Z)-9-octadecenoyloxy]methyl}-5-hydroxymethyl-tetrahydro-2-furanone], the Ki in series [1] (setting [13]) worked out at 96 ± 7.45 nM. On the same count and under the same terms, for `CCCCCCCCCCCCCC(=O)OCC1(CO)COC(=O)C1` (stereo not shown) [Compound 9c, 4-Hydroxymethyl-4-(tetradecanoyloxy)methyl-4-vinyltetrahydro-2-furanone] the value was 9810 nM; for `CCCCCCCCCCCCCCC1CC(CO)(COC(C)=O)OC1=O` (stereo not shown) [Compound 12, 5-(acetyloxymethyl)-5-(hydroxymethyl)-3-(tetradecanyl)-tetrahydro-2-furanone], 75 ± 2.54 nM. As to `CCCCCCCCCCCCC/C=C1\C(=O)OCC1(CO)COC(C)=O` (stereo not shown) [Compound 14c, (Z)-4-[(acetoxy)methyl]-4-hydroxymethyl-3-(tetradecanylidene)-tetrahydro-2-furanone], the Ki in series [1] (setting [13]) was determined as 6510 nM. In the case of `CCCC=CC=CC(=O)OC1C(=CC(=O)OC)CC2CC(C(C)O)OC(=O)CC(O)CC3CC(OC(C)=O)C(C)(C)C(O)(CC4CC(=CC(=O)OC)CC(C=CC(C)(C)C1(O)O2)O4)O3` (stereo not shown) [bryostatin-1], the “results in clinical trials for treatment of melanoma” value in series [10] is “promising results”. As for `CCCCCCCCCCCCCC(=O)OC[C@]1(CO)CCC(=O)O1` [drawing 16], the Ki in series [1] (setting [11]) stood at 96 ± 2.17 nM.

As for `CCCCCCCC/C=C\CCCCCCC/C=C1\C[C@](/C=C/C(=O)OC)(CO)OC1=O` [drawing 35], in [1] (setting [14]), the Ki turned out to be 20.1 ± 2.9 nM. The same measure, in the same setting: for `CCCCCCCC/C=C\CCCCCCC/C=C1/C[C@](/C=C/C(=O)OC)(CO)OC1=O` [drawing 36] the value was 11.3 ± 0.72 nM.
